≈ marks a conversion by molar mass, not a printed value. Where two headings read alike, the source gives them in different places.
Key:
[1] = system: S. aureus MRSA (ATCC 33591); experiment: MIC susceptibility testing; format: cell-based, Staphylococcus aureus; conditions: for MIC: Staphylococcus aureus
Summary of the method: (§1)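 CLSI broth microdilution with two-fold compound dilutions, in triplicate; cells added in medium at 1×10^6 CFUs/mL, DMSO ≤0.5%. Media: MHB for S. aureus, CA-MHB for E. coli and E. faecium, CA-MHB plus 3% laked horse blood for S. pyogenes (5% CO2).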

[2] = system: S. aureus MSSA (ATCC 29213); experiment: MIC susceptibility testing; format: cell-based, Staphylococcus aureus; conditions: for MIC: Staphylococcus aureus
[3] = system: E. faecium VRE (ATCC 51559); experiment: MIC susceptibility testing; format: cell-based, Enterococcus faecium; conditions: for MIC: Enterococcus faecium
Summary of the method: as §1

[4] = Cytotoxicity testing on mammalian cells (AlamarBlue, 48 hours); format: cell-based; conditions: human
Summary of the method: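 CRL-8155 human lymphoblasts and HepG2 cells exposed to serial compound dilutions for 48 h. Viability read by AlamarBlue in quadruplicate. EC50 from non-linear regression.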

[5] = Liver microsome stability; format: in vitro ADME
Method: Microsome stability. Liver microsome stability assays were done by contract research laboratory, Wuxi AppTec Co. (Hubei, China). Briefly, compounds at 1 μM concentration were incubated in singlet with human or CD-1 mouse liver microsomes for 6 time points (0, 5, 10, 20, 30, and 60 min). Loss of parent compound was quantified by liquid chromatography/tandem mass spectrometry.

[6] = system: E. coli MB4827 (wild-type); experiment: MIC against permeability strains of E. coli; format: cell-based; conditions: Escherichia coli, read-out: MIC MB4827 (wild-type)
Method: (§2) Bacterial strains. Strains with ATCC designations were either obtained directly from the American Type Culture Collection (Manassas, Va.) or were kindly provided by the University of Washington Clinical Microbiology laboratory. Escherichia coli permeability mutants (properties shown in Table 1) were provided as a gift from Dr. Katherine Young at Merck (Rahway, N.J.).
(§3) Susceptibility testing: Minimum inhibitory concentration (MIC) determinations were performed in triplicate in 96-well round bottom microtiter plates (Corning, Corning N.Y.) as described by the Clinical and Laboratory Standards Institute (CLSI). Serial two-fold dilutions of compounds were added to plates in 50 μL volumes. An additional 50 μL of media containing bacterial cells (1×10^6 CFUs/mL) was then added to each well. Maximum DMSO concentrations were 0.5%. Plates were incubated at 37° C. for at least 18 h before reading the susceptibility result by optical absorbance (OD600) using a BioTek ELx800. The lowest concentration causing ≥90% growth inhibition compared to the untreated control was recorded as the MIC (and also corresponded to the visual MIC). MICs were measured at least twice and the higher value (if different) was recorded herein.

[7] = system: E. coli MB4902 (lpxC); experiment: microbe, parasite or virus in culture; format: cell-based; conditions: Escherichia coli, read-out: MIC MB4902 (lpxC)
Method: as §2, §3

[8] = system: E. coli MB5746 (lpxC, tolC); experiment: microbe, parasite or virus in culture; format: cell-based; conditions: Escherichia coli, read-out: MIC MB5746 (lpxC, tolC)
Method: as §2, §3

[9] = system: E. coli MB5747 (tolC); experiment: microbe, parasite or virus in culture; format: cell-based; conditions: Escherichia coli, read-out: MIC MB5747 (tolC)
Method: as §2, §3

[10] = system: S. aureus (ATCC 29213); experiment: MBC determinations (with MIC); format: cell-based; conditions: Staphylococcus aureus, ATCC29213, S. aureus (ATCC 29213); for MIC: MBC experiment (Table 5), read-out: MIC; for MBC: concentration killing 99.9% of inoculum, read-out: MBC
Method: Maximum DMSO concentrations were 0.5%. […] Each experiment's inoculum was serially diluted and plated on TSA to count competent cells. Cultures were incubated at 37° C. for at least 20 h and plated on TSA for CFU determination.
MIC/MBC: Measurements of minimum bactericidal concentrations (MBCs) were done with the S. aureus strain ATCC 29213 (Table 5).

[11] = system: S. aureus (ATCC 29213); format: cell-based, Staphylococcus aureus; conditions: 8× the MIC; for Resistance frequency (Expt. 1) / Resistance frequency (Expt. 2): 72 h; for Resistance frequency (average or greater #): two independent experiments
Method: Resistance frequency rates determination: The spontaneous resistance frequency rates to test compounds was determined according to published methods. Agar selection plates were made by adding compound from DMSO stocks into molten Mueller Hinton agar in a 55° C. water bath. […] The final DMSO concentration was <0.1% per plate. Plates were dried in a sterile hood for 30 minutes prior to overnight storage at 4° C., and pre-warmed in the 37° C. incubator for 1 hour prior to assay.
A fresh overnight culture was diluted 1:50 in MHB and grown at 37° C. with shaking (150 rpm) until reaching an OD600 of 0.4 correlating to ˜2×10^9 CFUs/mL. Approximately 3 mL for a total of 6*10^9 CFUs were distributed onto 4 plates for each compound. Plates were incubated at 37° C. for 72 h prior to counting of colonies. The starting inoculum was also serially diluted and plated to quantify initial bacterial load. The resistance frequency was determined as the number of compound-resistant colonies divided by the total colonies plated.
Resistance frequency rates: The propensity for S. aureus to develop resistance to MetRS inhibitors was also studied (Table 6).

[12] = molecular target: MetRS (C. parvum) (Cryptosporidium parvum, UniProt Q5CVN0); experiment: MetRS (C. parvum) enzyme inhibition; format: biochemical; conditions: read-out: (C) MetRS (C. parvum) IC50
Chain of MetRS (C. parvum) (Q5CVN0 entry or part of it): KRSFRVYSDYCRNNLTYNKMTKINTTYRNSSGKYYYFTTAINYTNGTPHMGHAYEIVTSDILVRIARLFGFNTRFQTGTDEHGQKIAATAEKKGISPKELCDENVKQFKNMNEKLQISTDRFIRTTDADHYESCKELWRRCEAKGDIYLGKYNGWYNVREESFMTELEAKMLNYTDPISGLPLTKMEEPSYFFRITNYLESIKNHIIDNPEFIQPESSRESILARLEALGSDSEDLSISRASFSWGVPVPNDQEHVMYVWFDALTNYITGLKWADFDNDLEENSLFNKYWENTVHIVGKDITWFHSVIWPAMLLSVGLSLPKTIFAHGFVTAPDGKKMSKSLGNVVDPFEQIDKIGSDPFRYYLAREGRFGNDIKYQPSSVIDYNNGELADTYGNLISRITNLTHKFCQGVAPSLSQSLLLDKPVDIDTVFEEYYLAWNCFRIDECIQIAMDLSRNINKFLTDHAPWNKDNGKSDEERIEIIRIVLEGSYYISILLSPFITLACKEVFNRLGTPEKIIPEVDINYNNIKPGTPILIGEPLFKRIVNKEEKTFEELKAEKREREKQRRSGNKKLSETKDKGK

[13] = read-out: S. aureus MRSA (ATCC 33591) MIC
[14] = 18 h, read-out: S. aureus MSSA (ATCC 29213) MIC
[15] = read-out: E. faecium VRE (ATCC 51559) MIC
[16] = CRL-8155 cells (human lymphoblasts), read-out: Mamm. cells (CRL8155) CC50
[17] = HepG2 cells (human hepatocellular carcinoma), read-out: Mamm. cells (HepG2) CC50
[18] = human, human liver microsomes, read-out: Microsome stability: Human T½
[19] = mouse liver microsomes, CD-1 mouse, read-out: Microsome stability: Mouse T½
[20] = MRSA ATCC33591, read-out: (G) MRSA (ATCC33591) MIC
[21] = E. faecium ATCC 51559, read-out: (I) E. faecium (ATCC 51559) MIC

| Structure (SMILES) | MIC [1, 13] [µg/mL] | MIC [2, 14] [µg/mL] | MIC [3, 15] [µg/mL] | CC50 at 48 h [4, 16] [µg/mL] | CC50 at 48 h [4, 17] [µg/mL] | half-life at 1 μM [5, 18] [min] | half-life at 1 μM [5, 19] [min] | MIC [6] [µg/mL] | MIC [7] [µg/mL] | MIC [8] [µg/mL] | MIC [9] [µg/mL] | MIC [10] [µg/mL] | MBC [10] [µg/mL] | Resistance frequency (Expt. 1) [11] | Resistance frequency (Expt. 2) [11] | IC50 [12] [µM] | MIC [1, 20] [µg/mL] | other results |
| --- | --- | --- | --- | --- | --- | --- | --- | --- | --- | --- | --- | --- | --- | --- | --- | --- | --- | --- |
| Fc1ccc2nc(NCCCNCc3cc(Cl)cc(Cl)c3)[nH]c2n1 [Compound 1614, [(3,5-dichlorophenyl)methyl][3-({5-fluoro-3H-imidazo[4,5-b]pyridin-2-yl}amino)propyl]amine] | 5 (≈ 13.6 µM) | 2.5 (≈ 6.79 µM) | 0.625 (≈ 1.7 µM) | 14.8 (≈ 40.2 µM) | > 18.4 | 9.8 | 6.6 |  |  |  |  |  |  |  |  |  |  |  |
| Fc1ccc2nc(NCCCN[C@@H]3CCNc4c(Cl)cc(Cl)cc43)[nH]c2n1 [Compound 1717, (4R)-6,8-dichloro—N-[3-({5-fluoro-3H-imidazo[4,5-b]pyridin-2-yl}amino)propyl]-1,2,3,4-tetrahydroquinolin-4-amine, reference compound] | 0.078 (≈ 0.191 µM) | 0.156 (≈ 0.381 µM) | 0.156 (≈ 0.381 µM) | 5.8 (≈ 14.2 µM) | 10.4 (≈ 25.4 µM) | 10.3 | 10.3 | > 20 | > 20 | > 20 | > 20 | 0.156 (≈ 0.381 µM) | 5 (≈ 12.2 µM) | 2.89 × 10^−9 | 5.43 × 10^−9 |  |  | MIC ([2]; read-out: MIC against S. aureus): 0.156 µg/mL (≈ 0.381 µM) |
| CCn1c(Cc2ccc(Cl)cc2Cl)cn(Cc2nc3nc(F)ccc3[nH]2)c1=O [Compound 2062, 4-[(2,4-dichlorophenyl)methyl]-3-ethyl-1-({5-fluoro-1H-imidazo[4,5-b]pyridin-2-yl}methyl)-2,3-dihydro-1H-imidazol-2-one] |  | 0.078 (≈ 0.186 µM) | 0.313 (≈ 0.745 µM) | > 21 | > 21 | 12.6 | 8.4 |  |  |  |  |  |  |  |  | < 0.04 |  |  |
| CCn1c(Cc2ccc(OC)cc2Cl)cn(Cc2nc3nc(Cl)ccc3[nH]2)c1=O [Compound 2093, 1-({5-chloro-1H-imidazo[4,5-b]pyridin-2-yl}methyl)-4-[(2-chloro-4-methoxyphenyl)methyl]-3-ethyl-2,3-dihydro-1H-imidazol-2-one] | 0.313 (≈ 0.724 µM) | 0.039 (≈ 0.0902 µM) | 0.078 (≈ 0.18 µM) | > 21.6 | > 21.6 | 8.3 | 3.2 | > 20 | > 20 | > 20 | > 20 | 0.078 (≈ 0.18 µM) | 1.25 (≈ 2.89 µM) | 1.60 × 10^−8 | 2.58 × 10^−8 | < 0.04 | 0.123 (≈ 0.285 µM) | (G) MRSA (ATCC33591) MIC ([1]; MRSA ATCC33591): 0.225 µg/mL; (I) E. faecium (ATCC 51559) MIC ([3]; E. faecium ATCC 51559): 0.0387 µg/mL; MIC [3, 21]: 0.0507 µg/mL (≈ 0.117 µM); Resistance frequency (average or greater #) [11]: 2.10 × 10^−8 |
| CCn1c(Cc2ccc(OC)cc2Cl)cn(Cc2nc3nc(F)ccc3[nH]2)c1=O [Compound 2114, 4-[(2-chloro-4-methoxyphenyl)methyl]-3-ethyl-1-({5-fluoro-1H-imidazo[4,5-b]pyridin-2-yl}methyl)-2,3-dihydro-1H-imidazol-2-one] |  | 0.313 (≈ 0.753 µM) | 0.156 (≈ 0.375 µM) | > 20.8 | > 20.8 | 15.2 | 7.7 |  |  |  |  |  |  |  |  | < 0.04 | 1.53 (≈ 3.68 µM) | (F) S. aureus (ATCC 29213) MIC ([2]; S. aureus ATCC 29213): 0.192 µg/mL; MIC ([2]; S. aureus ATCC 29213, read-out: (F) S. aureus (ATCC 29213) MIC): 0.129 µg/mL (≈ 0.31 µM) |
| COc1cc(Cl)c(-c2cccc3nc(Cc4nc5nc(Cl)ccc5[nH]4)cn23)cc1OC [Compound 2144, 2-({5-chloro-1H-imidazo[4,5-b]pyridin-2-yl}methyl)-5-(2-chloro-4,5-dimethoxyphenyl)imidazo[1,2-a]pyridine] | 0.039 (≈ 0.0858 µM) | 0.0195 (≈ 0.0429 µM) | 0.0195 (≈ 0.0429 µM) | > 11.3 | > 11.3 | 16.4 | 6.5 | > 20 | > 20 | > 20 | > 20 | 0.01 (≈ 0.022 µM) | 0.313 (≈ 0.689 µM) | 3.15 × 10^−9 | 2.45 × 10^−8 | 0.0409 | 0.033 (≈ 0.0726 µM) | (G) MRSA (ATCC33591) MIC ([1]; MRSA ATCC33591): 0.0216, μg/mL; (I) E. faecium (ATCC 51559) MIC ([3]; E. faecium ATCC 51559): 0.0140, μg/ml; MIC [3, 21]: 0.0126 µg/mL (≈ 0.0277 µM); Resistance frequency (average or greater #) [11]: 1.38 × 10^−8 |
| CC(=O)NC[C@H]1CN(c2ccc(N3CCOCC3)c(F)c2)C(=O)O1 [LNZ, linezolid] | 1.25 (≈ 3.71 µM) | 2.5 (≈ 7.41 µM) | 1.25 (≈ 3.71 µM) | > 33.7 | > 33.7 |  |  |  |  |  |  | 2.5 (≈ 7.41 µM) | 160 (≈ 474 µM) |  |  |  |  |  |

— US11584744B2 (UNIVERSITY OF WASHINGTON, priority 2017, dated 2023)
